Assay results as given in ChEMBL document CHEMBL5715954, “Silencing c-Myc translation as a therapeutic strategy through targeting PI3Kδ and CK1ε in hematological malignancies” (Blood, 2017).

Experiments:
Set-up in all cases: scale not given: the % may be the effect or the level left
[1] = biological target: Serine/threonine-protein kinase 33 (Homo sapiens) (UniProt Q9BYT3); experiment: Inhibition of human STK33 assessed as enzyme activity at 1 uM using myelin basic protein as substrate preincubated for 20 mins followed by [gamma-33P]-ATP addition and measured after 120 mins by radiometric Hot-SpotSM Kinase assay relative to control
Chain of Serine/threonine-protein kinase 33 (Homo sapiens) (Q9BYT3 whole entry, looked up): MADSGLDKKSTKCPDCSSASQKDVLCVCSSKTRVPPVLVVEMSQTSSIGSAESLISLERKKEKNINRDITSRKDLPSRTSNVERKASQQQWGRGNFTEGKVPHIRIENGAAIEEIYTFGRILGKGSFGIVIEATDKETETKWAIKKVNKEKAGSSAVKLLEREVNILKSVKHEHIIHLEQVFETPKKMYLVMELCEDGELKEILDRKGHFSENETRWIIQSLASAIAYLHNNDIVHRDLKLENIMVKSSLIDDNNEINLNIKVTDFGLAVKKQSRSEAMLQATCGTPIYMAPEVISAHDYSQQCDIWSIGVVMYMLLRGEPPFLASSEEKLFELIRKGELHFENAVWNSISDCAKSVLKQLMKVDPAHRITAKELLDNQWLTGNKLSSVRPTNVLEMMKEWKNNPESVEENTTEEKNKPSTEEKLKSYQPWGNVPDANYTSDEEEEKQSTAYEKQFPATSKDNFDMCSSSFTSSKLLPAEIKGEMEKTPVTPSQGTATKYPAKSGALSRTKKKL

[2] = biological target: T1, Dual specificity mitogen-activated protein kinase kinase 5 (Homo sapiens) (UniProt Q13163); experiment: Inhibition of human MEK5 assessed as enzyme activity at 1 uM using ERK5 (K84R) as substrate preincubated for 20 mins followed by [gamma-33P]-ATP addition and measured after 120 mins by radiometric Hot-SpotSM Kinase assay relative to control
T1 sequence (whole entry): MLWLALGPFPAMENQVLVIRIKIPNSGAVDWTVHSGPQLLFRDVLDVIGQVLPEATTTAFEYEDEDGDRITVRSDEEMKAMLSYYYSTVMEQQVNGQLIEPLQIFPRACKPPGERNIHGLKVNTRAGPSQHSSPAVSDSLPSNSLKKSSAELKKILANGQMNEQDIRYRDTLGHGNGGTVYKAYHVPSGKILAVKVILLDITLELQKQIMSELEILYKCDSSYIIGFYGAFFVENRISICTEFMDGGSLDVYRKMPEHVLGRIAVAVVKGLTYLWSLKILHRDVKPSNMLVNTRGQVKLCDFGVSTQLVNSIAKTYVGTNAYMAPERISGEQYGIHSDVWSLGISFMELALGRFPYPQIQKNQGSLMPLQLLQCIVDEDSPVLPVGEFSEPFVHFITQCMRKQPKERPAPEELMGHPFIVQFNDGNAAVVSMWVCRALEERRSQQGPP

[3] = biological target: Calcium/calmodulin-dependent protein kinase type II subunit beta (Homo sapiens) (UniProt Q13554); experiment: Inhibition of human CAMK2b assessed as enzyme activity at 1 uM using KKALRRQETVDAL as substrate preincubated for 20 mins followed by [gamma-33P]-ATP addition and measured after 120 mins by radiometric Hot-SpotSM Kinase assay relative to control
Chain of Calcium/calmodulin-dependent protein kinase type II subunit beta (Homo sapiens) (Q13554 whole entry): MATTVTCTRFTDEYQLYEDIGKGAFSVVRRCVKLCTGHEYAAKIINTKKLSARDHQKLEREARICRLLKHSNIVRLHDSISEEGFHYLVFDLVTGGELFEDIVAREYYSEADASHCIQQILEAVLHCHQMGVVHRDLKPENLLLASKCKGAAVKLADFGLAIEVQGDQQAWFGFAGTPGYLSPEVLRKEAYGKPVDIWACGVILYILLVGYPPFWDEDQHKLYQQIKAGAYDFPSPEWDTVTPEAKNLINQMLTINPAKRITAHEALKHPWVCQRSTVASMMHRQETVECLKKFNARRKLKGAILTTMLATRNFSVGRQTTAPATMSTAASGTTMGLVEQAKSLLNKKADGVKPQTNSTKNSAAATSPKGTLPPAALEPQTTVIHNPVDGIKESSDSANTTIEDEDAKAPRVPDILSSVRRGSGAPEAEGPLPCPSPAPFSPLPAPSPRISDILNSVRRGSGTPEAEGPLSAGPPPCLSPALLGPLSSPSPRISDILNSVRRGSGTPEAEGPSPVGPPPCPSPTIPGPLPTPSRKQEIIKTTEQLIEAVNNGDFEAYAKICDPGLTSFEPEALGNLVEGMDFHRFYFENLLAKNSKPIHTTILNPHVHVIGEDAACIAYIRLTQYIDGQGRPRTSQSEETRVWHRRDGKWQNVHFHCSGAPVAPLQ

[4] = biological target: Tyrosine-protein kinase ABL2 (Homo sapiens) (UniProt P42684); experiment: Inhibition of human ABL2 assessed as enzyme activity at 1 uM using EAIYAAPFAKKK as substrate preincubated for 20 mins followed by [gamma-33P]-ATP addition and measured after 120 mins by radiometric Hot-SpotSM Kinase assay relative to control
Chain of Tyrosine-protein kinase ABL2 (Homo sapiens) (P42684 whole entry): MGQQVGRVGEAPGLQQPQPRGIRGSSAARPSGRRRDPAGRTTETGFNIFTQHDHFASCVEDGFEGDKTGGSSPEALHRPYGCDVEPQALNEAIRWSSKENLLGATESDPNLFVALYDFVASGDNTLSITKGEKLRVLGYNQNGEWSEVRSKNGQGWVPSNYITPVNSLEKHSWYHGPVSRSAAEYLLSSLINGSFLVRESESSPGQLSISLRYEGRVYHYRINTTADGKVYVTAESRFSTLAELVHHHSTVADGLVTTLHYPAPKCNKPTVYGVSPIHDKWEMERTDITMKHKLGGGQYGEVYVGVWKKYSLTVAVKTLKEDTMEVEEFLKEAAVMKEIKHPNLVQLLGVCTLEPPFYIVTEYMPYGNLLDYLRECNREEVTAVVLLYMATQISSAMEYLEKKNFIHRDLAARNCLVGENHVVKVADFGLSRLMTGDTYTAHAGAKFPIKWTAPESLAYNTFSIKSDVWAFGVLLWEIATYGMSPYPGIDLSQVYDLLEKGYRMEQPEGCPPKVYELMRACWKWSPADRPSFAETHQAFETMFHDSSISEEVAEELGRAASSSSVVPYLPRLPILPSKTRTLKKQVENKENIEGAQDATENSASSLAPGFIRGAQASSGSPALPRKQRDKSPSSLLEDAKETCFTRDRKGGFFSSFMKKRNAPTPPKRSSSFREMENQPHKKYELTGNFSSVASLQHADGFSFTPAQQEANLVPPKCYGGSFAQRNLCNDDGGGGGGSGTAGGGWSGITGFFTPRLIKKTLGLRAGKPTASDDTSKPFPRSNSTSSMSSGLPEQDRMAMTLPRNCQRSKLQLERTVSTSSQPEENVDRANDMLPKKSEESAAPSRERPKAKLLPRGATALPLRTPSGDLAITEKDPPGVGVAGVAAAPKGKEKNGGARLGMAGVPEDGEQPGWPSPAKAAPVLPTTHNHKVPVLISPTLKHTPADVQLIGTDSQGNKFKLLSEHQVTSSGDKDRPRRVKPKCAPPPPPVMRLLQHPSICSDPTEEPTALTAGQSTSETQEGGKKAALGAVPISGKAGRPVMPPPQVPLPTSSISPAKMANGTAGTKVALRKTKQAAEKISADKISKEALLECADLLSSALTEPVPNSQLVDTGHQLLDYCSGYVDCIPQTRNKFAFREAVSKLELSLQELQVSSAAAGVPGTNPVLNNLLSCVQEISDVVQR

[5] = biological target: T2, Dual specificity tyrosine-phosphorylation-regulated kinase 4 (Homo sapiens) (UniProt Q9NR20); experiment: Inhibition of human DYRK4 assessed as enzyme activity at 1 uM using RRRFRPASPLRGPPK as substrate preincubated for 20 mins followed by [gamma-33P]-ATP addition and measured after 120 mins by radiometric Hot-SpotSM Kinase assay relative to control
T2 sequence (whole entry): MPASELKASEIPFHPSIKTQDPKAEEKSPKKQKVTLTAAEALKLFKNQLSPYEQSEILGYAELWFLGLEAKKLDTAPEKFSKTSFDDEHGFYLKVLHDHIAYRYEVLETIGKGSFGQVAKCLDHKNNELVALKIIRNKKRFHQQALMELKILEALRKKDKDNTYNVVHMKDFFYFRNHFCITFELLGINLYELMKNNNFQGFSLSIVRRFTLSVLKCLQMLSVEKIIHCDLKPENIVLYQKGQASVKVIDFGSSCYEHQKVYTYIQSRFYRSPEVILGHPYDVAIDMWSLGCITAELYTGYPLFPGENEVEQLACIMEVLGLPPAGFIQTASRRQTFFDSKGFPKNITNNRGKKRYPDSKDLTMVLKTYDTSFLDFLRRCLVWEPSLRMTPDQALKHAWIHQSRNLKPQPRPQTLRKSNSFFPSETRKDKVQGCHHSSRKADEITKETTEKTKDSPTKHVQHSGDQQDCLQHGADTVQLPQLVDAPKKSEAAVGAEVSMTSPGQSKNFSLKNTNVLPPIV

[6] = biological target: Tyrosine-protein kinase Lyn (Homo sapiens) (UniProt P07948); experiment: Inhibition of human LYN assessed as enzyme activity at 1 uM using poly[Glu:Tyr] (4:1) as substrate preincubated for 20 mins followed by [gamma-33P]-ATP addition and measured after 120 mins by radiometric Hot-SpotSM Kinase assay relative to control
Chain of Tyrosine-protein kinase Lyn (Homo sapiens) (P07948 2-512 limits assumed): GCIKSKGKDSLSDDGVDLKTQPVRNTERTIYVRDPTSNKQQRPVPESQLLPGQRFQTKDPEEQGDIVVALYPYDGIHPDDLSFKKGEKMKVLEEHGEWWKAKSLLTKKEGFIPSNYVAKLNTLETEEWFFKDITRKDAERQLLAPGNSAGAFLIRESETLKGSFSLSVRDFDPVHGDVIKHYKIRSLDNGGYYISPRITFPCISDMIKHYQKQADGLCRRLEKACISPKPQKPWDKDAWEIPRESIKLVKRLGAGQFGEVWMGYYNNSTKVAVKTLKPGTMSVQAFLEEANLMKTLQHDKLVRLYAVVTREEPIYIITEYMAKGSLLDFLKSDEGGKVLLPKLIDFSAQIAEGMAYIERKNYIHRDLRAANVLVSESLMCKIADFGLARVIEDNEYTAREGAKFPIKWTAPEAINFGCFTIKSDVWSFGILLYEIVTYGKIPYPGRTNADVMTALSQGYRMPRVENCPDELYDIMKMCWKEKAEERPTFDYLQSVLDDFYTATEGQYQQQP

[7] = biological target: T3, cGMP-dependent protein kinase 2 (Homo sapiens) (UniProt Q13237); experiment: Inhibition of human PKG2 assessed as enzyme activity at 1 uM using LRRASLG as substrate preincubated for 20 mins followed by [gamma-33P]-ATP addition and measured after 120 mins by radiometric Hot-SpotSM Kinase assay relative to control
T3 sequence (whole entry): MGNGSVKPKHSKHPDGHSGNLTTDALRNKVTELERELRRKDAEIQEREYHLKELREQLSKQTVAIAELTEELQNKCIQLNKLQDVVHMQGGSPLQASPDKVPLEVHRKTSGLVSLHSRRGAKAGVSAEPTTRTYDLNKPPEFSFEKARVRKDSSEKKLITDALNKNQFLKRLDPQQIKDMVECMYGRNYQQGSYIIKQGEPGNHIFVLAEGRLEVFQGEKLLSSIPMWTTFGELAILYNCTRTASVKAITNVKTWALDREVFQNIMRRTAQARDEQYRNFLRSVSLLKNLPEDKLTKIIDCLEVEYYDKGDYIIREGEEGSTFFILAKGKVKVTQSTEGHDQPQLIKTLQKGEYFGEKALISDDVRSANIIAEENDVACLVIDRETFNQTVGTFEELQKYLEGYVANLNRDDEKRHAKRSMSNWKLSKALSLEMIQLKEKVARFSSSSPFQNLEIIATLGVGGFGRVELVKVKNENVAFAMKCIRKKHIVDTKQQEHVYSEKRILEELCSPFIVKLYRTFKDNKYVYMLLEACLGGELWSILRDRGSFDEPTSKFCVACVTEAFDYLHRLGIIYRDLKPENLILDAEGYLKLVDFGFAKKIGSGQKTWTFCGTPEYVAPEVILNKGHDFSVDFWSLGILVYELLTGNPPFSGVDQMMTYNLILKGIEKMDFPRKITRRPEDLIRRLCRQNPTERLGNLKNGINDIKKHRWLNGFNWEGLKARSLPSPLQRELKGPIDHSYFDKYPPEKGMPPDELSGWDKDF

[8] = biological target: G protein-coupled receptor kinase 6 (Homo sapiens) (UniProt P43250); experiment: Inhibition of human GRK6 assessed as enzyme activity at 1 uM using casein as substrate preincubated for 20 mins followed by [gamma-33P]-ATP addition and measured after 120 mins by radiometric Hot-SpotSM Kinase assay relative to control
Chain of G protein-coupled receptor kinase 6 (Homo sapiens) (P43250 whole entry, looked up): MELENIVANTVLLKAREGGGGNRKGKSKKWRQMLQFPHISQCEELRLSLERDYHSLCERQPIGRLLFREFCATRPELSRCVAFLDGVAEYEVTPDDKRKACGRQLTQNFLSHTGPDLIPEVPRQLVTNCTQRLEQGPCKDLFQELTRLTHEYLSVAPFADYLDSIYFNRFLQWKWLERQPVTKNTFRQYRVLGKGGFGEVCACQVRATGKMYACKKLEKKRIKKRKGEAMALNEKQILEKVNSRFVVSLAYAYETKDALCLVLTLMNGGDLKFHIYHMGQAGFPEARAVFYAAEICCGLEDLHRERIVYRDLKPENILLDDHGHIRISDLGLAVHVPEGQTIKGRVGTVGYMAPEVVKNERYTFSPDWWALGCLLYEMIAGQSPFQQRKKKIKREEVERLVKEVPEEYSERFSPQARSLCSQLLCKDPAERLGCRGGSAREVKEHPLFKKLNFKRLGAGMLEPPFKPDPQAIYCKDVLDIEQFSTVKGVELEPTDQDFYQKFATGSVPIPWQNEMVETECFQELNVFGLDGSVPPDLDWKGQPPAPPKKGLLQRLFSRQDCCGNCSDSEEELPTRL

`CC[C@H](Nc1ncnc2[nH]cnc12)c1nc2cccc(F)c2c(=O)n1-c1ccccc1` was tested. Which Activity [1] did it give?
The Activity was 101%.

What about the Activity [2] of the same molecule?
Its Activity is 104%.

And the Activity [3]?
The Activity was 96.2%.

And the Activity [4]?
Its Activity is 89.1%.

What about the Activity [5] of the same molecule?
The Activity was 100%.

What about the Activity [6] of the same molecule?
Its Activity is 95%.

What about the Activity [7] of the same molecule?
The Activity was 99.7%.

And the Activity [8]?
Its Activity is 99.5%.

Which results are given for `C[C@H](Nc1ncnc2nc[nH]c12)c1cc2cccc(Cl)c2c(=O)n1-c1ccccc1`?
Activity [1]: 101%; Activity [2]: 105%; Activity [3]: 95.8%; Activity [4]: 91.7%; Activity [5]: 97.1%; Activity [6]: 100%; Activity [7]: 99.8%; Activity [8]: 96.9%

Which results are given for `CC(C)Oc1ccc(-c2nn([C@@H](C)c3oc4ccc(F)cc4c(=O)c3-c3cccc(F)c3)c3ncnc(N)c23)cc1F` [UMBRALISIB]?
Activity [1]: 106%; Activity [2]: 102%; Activity [3]: 92.3%; Activity [4]: 90.6%; Activity [5]: 98.8%; Activity [6]: 96.4%; Activity [7]: 102%; Activity [8]: 102%
